{"source": "patent US20050282843A1", "about": "“Therapeutic applications of 2-substituted 4-heteroarylpyrimidines” (priority 2002, published 2005)", "origin": "cited, not measured here", "system": "GSK3", "settings": "known CDK inhibitors; cited from earlier work"}
{"smiles": "CC[C@H](CO)Nc1nc(NCc2ccccc2)c2ncn(C(C)C)c2n1", "note": "[roscovitine]", "values": [{"measurement": "inhibition of GSK3 (literature statement)", "value": "do not inhibit GSK3"}]}
